Experimental data taken from publication doi:10.1101/2020.10.25.354381v1, “Multi-dimensional digital bioassay platform based on an air-sealed femtoliter reactor array device” (biorxiv, 2020).

Experiments:
[1] = test system: T1, CiALP (calf intestinal ALP); assay: fluorogenic ALP assay, bulk microtiter plate, Hill fit; assay type: biochemical, Bos taurus; conditions: […] 4-MUP, […] DEA-HCl, […] MgCl2, […] ZnSO4, pH […] TWEEN20, […] °C; […] min preincubation
T1 construct: gene ALPI; homodimeric metalloenzyme

[2] = target: T2, EcALP (D101S, an active mutant of Escherichia coli ALP) (Escherichia coli, UniProt P00634, D123S); assay: as above; assay type: biochemical; conditions: […] 4-MUP, […] DEA-HCl, […] MgCl2, […] ZnSO4, pH […] TWEEN20, […] °C; […] min preincubation; diluted cell-free synthesis mixture
T2 construct: gene phoA; D101S mutant, cell-free synthesis (PURExpress with disulfide bond enhancer), not purified; homodimeric metalloenzyme
T2 sequence (P00634 22-471 D123S): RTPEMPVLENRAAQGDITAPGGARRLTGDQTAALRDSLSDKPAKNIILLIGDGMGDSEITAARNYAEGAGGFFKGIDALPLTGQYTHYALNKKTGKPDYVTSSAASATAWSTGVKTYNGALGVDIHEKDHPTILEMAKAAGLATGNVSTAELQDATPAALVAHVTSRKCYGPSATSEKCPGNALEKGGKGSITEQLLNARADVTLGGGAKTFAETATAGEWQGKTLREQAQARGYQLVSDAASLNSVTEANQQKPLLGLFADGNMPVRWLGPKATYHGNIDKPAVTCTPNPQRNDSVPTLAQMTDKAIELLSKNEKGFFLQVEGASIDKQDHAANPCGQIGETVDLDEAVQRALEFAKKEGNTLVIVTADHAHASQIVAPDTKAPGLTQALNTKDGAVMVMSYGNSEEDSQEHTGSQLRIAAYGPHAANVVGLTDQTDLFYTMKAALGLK

SMILES	IC50 [1] [µM]	IC50 [2] [mM]
[O]=[V]([OH])([OH])[OH] [V, vanadate]	200	7.8
O=P(O)(O)O [Pi, phosphate]	1600	
